# Measured values reported in paper PMC10420250, “Assessment of Purity, Stability, and Pharmacokinetics of NGP-1, a Novel Prodrug of GS441254 with Potential Anti-SARS-CoV-2 Activity, Using Liquid Chromatography” (Molecules, 2023).
# Assays:
# several viruses = conditions: in vitro; cited from earlier work
# [1] = Pharmacokinetic study in rats via gavage administration, plasma GS441 by LC-MS/MS; format: in vivo, Sprague-Dawley rats; conditions: equimolar doses
# Experimental: A pharmacokinetic study was carried out in vivo using Sprague-Dawley rats to assess the behavior of NGP-1 when administered orally through the gastrointestinal route. The rats were randomly categorized into two groups (n = 6) and subjected to a 12 h overnight fast prior to oral administration. […] After administration, 0.5 mL of orbital blood was collected at specific time intervals in an EP tube with heparin moisturizing.
# All the blood samples were promptly centrifuged at 4 °C to separate the upper plasma. A volume of 50 µL of plasma was subsequently transferred to a tube pre-filled with 450 µL of protein precipitant (H2O:ACN:MeOH = 1:4:4 containing 20 ng/mL of QX). […] After thorough mixing, the samples underwent high-speed centrifugation. The supernatants were extracted and centrifugated again. The resulting supernatants were collected and transferred into a vial for subsequent analysis.
# The AB SCIEX QTRAP®4500 instrument, which comprised an LC system (ExionLC^TM, SCIEX, Framingham, MA, USA) and a triple-quadrupole mass spectrometer with an ESI interface, was used for the experiment. […] The data were acquired and analyzed using Analyst 1.7.3 coupled with MultiQuant 3.0.3 (SCIEX).
# [2] = Stability of NGP-1 in artificial digestive juices (HPLC-DAD); format: in vitro ADME
# Source text: Esterification is the predominant reaction used for the generation of prodrugs, owing to the facile hydrolysis of esters by various and ubiquitous esterases present in the various matrices. However, the presence of esters, particularly cyclic lactones, may result in instability in acidic, basic, or esterase environments. In this study, HPLC-DAD was employed to assess the stability of NGP-1 in different artificial digestive juices. The test samples were collected at various time intervals subsequent to dissolving NGP-1 in artificial gastric juice (diluted HCl with pepsin, pH = 1.5) and artificial intestinal juice (PBS with trypsin, pH = 6.8).
# Mobile phase A consisted of a phosphoric acid solution, while mobile phase B consisted of ACN. Gradient elution was employed to separate the components under the following conditions: 0–4 min, 30–50% B; 4–10 min, 50% B. The specific parameters for liquid chromatography are presented in Table 2. […] Then, the content of the objective analytes in each sample was calculated using the external standard method.
SMILES,EC50 comparison GS441 vs RDV (several viruses),AUC0–∞ of converted GS441 relative to directly administered GS441 [1],Frel / oral bioavailability of NGP-1 relative to GS441 [1],"Degradation rate in artificial gastric juice ([2]; AGJ, diluted HCl with pepsin, pH = 1.5)","Stability in artificial intestinal juice ([2]; AIJ, PBS with trypsin, pH 6.8)"
"CCC(CC)COC(=O)[C@H](C)N[P@](=O)(OC[C@H]1O[C@@](C#N)(c2ccc3c(N)ncnn23)[C@H](O)[C@@H]1O)Oc1ccccc1 [RDV, remdesivir]",more potent,,,,
CC(C)C(=O)OC[C@H]1O[C@@](C#N)(c2ccc3c(N)ncnn23)[C@@H]2OC(=O)O[C@@H]21 [NGP-1],,approximately four,approximately four and four,accelerate significantly,relatively stable
N#C[C@@]1(c2ccc3c(N)ncnn23)O[C@H](CO)[C@@H](O)[C@H]1O [GS441],higher EC50 than RDV,,,,
